Laboratory results as given in patent US8815523B2, “Method for live-cell activity assay” (Korea Institute of Science and Technology, priority 2010, dated 2014).

Legend:
Format in all cases: cell-based
intracellular caspases [1] = experiment: Nanowire sandwich assay of intracellular caspase activity, TAMRA-labelled substrate peptide, fluorescence microscope; conditions: 200 nM apoptosis inducing agent in medium, 4 hours; 555 nm excitation/590 nm emission; FIG. 6D
Experimental: Since the fragments released into cells have TAMRA dye and can be identified by fluorescence microscope, activation of caspases may be confirmed based thereon.
As described in Example 5, peptides were fixed to nanowires using SMPH linker, and the peptide-fixed nanowires were positioned down, cell-fixed nanowire were positioned up, and they were contacted in a sandwich manner and incubated in DMEM containing penicillin (100 units/ml), streptomycin (0.1 mg/ml), 10% FBS and 200 nM Staurosporine (apoptosis inducing agent, Sigma) at 37° C., 5% CO2 for 4 hours.

intracellular caspases [2] = experiment: Nanowire sandwich assay of intracellular caspase activity, mass analysis (MALDI-TOF) of substrate peptide; conditions: 500 nM Staurosporine, 18 hours; FIG. 8C
[3] = tested on: Protein tyrosine phosphatase (PTP) in HeLa cells; experiment: Nanowire sandwich assay of intracellular PTP activity with PTP inhibitors (MALDI-TOF of substrate peptide); conditions: 100 μM sodium orthovanadate and 40 μM α-bromo-4-hydroxyacetophenone given together, 40 minutes pre-incubation, then 1 hour sandwich incubation, FIG. 5C
Experimental: Specifically, the silicon nanowires prepared in Example 1 were washed with 100% (v/v) isopropyl alcohol before use and dried at room temperature, and then, introduced in 2 ml of toluene solution containing 100 μl of APTMS (Aminopropyl trimethoxysilane), reacted at room temperature for 2 hours, and washed 3 times respectively with toluene, 100% ethanol and distilled water, and finally washed with PBS (Phosphate Buffered Saline) to complete silanization so that the surface of the silicon nanowire has positively charged ammonium group. […]
The cell-fixed nanowires were positioned down, the PTP substrate peptide-fixed nanowires were positioned up, and they were contacted with each other, and then, incubated in DMEM medium containing penicillin (100 units/ml), streptomycin (0.1 mg/ml), and 10% FBS at 37° C., 5% CO2 for 1 hour. After incubation, the cell-fixed silicon nanowires and the peptide-fixed nanowires were separated from each other, and the peptide-fixed nanowires were washed with PBS and introduced in a buffer containing 50 mM Tris-HCl, pH 7.5, 0.5 mM EDTA, and 1 mM DTT (Dithiothreitol), and TEV protease (10 units/150 μl, Invitrogen) were added and treated at room temperature for 2 hours, and then, desalting was conducted with Zip-TIP (MILLIPORE), and changes of peptides were analyzed by MALDI-TOF (Applied Biosystems). […]

Compound	intracellular caspase activation: TAMRA dye-containing peptide fragments released into the cells (intracellular caspases [1])	cleavage of caspase substrate peptide (mass peak of 1041 dalton) (intracellular caspases [2])	1204 dalton peak (dephosphorylated PTP substrate peptide) in MALDI-TOF [3]
CN[C@@H]1C[C@H]2O[C@@](C)([C@@H]1OC)n1c3ccccc3c3c4c(c5c6ccccc6n2c5c31)C(=O)NC4 [Staurosporine]	intracellular caspases are activated	cleaved by caspase activated by staurosporine	–
[Na+].[Na+].[Na+].[O]=[V]([O-])([O-])[O-] [sodium orthovanadate]	–	–	remarkably reduced
O=C(CBr)c1ccc(O)cc1 [α-bromo-4-hydroxyacetophenone]	–	–	remarkably reduced
